In patent US9695155B2, “Herbicidal substituted pyrimidinyloxy benzene compounds” (E. I. DU PONT DE NEMOURS AND COMPANY, priority 2013, dated 2017):

Assays:
[1] = system: large (Lg) crabgrass; experiment: Test C preemergence; type: in vivo, Digitaria sanguinalis; conditions: Digitaria sanguinalis, pre-emergence
How it was run: (§1)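 Preemergence: seeds sown in a loam soil–sand blend and sprayed with test chemical in a non-phytotoxic solvent mixture containing surfactant. Postemergence: plants at 2 to 18 cm (1- to 4-leaf stage) in peat-based medium, treated with the same formulation. Greenhouse 13 to 15 days, then visual rating 0 (no effect) to 100 (complete control).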

[2] = system: giant foxtail; experiment: Test C preemergence; type: in vivo, Setaria faberii; conditions: Setaria faberi, pre-emergence
How it was run: as §1

[3] = system: Italian ryegrass; experiment: Test A preemergence; type: in vivo, Lolium multiflorum
How it was run: (§2)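 Scoring: eye-based comparison with untreated controls, 0 for no effect through 100 for complete control, at about day 10. Treatments: directed soil spray preemergence; foliar spray postemergence on 2–10 cm plants at the one- to two-leaf stage. Medium: loam soil with sand.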

[4] = system: ragweed; experiment: Test C preemergence; type: in vivo, Ambrosia elatior; conditions: Ambrosia artemisiifolia, pre-emergence
How it was run: as §1

[5] = system: oilseed rape; experiment: Test C preemergence; type: in vivo, Brassica napus; conditions: Brassica napus, pre-emergence
How it was run: as §1

[6] = system: velvetleaf; experiment: Test C preemergence; type: in vivo, Abutilon theophrasti; conditions: Abutilon theophrasti, pre-emergence
How it was run: as §1

[7] = system: johnsongrass; experiment: Test C preemergence; type: in vivo, Sorghum halepense; conditions: Sorghum halepense, pre-emergence
How it was run: as §1

[8] = system: kochia; experiment: Test A postemergence; type: in vivo, Kochia scoparia; conditions: 0 to 100 scale, 0 no effect, 100 complete control
How it was run: as §2

[9] = system: Italian ryegrass; experiment: Test C preemergence; type: in vivo, Lolium multiflorum; conditions: Lolium multiflorum, pre-emergence
How it was run: as §1

[10] = system: pigweed; experiment: Test C preemergence; type: in vivo, Amaranthus retroflexus; conditions: Amaranthus retroflexus, pre-emergence
How it was run: as §1

[11] = system: galium; experiment: Test A postemergence; type: in vivo, Galium aparine; conditions: 0 to 100 scale, 0 no effect, 100 complete control
How it was run: as §2

[12] = system: ragweed; experiment: Test A preemergence; type: in vivo, Ambrosia elatior
How it was run: as §2

[13] = system: ragweed; experiment: Test A postemergence; type: in vivo, Ambrosia elatior; conditions: 0 to 100 scale, 0 no effect, 100 complete control
How it was run: as §2

[14] = system: blackgrass; experiment: Test C preemergence; type: in vivo, Alopecurus myosuroides; conditions: Alopecurus myosuroides, pre-emergence
How it was run: as §1

[15] = system: waterhemp; experiment: Test C preemergence; type: in vivo, Amaranthus rudis; conditions: Amaranthus tuberculatus, pre-emergence
How it was run: as §1

[16] = system: wheat, winter; experiment: Test C preemergence; type: in vivo, Triticum aestivum; conditions: Triticum aestivum, pre-emergence
How it was run: as §1

[17] = system: barnyardgrass; experiment: Test C preemergence; type: in vivo, Echinochloa crus-galli; conditions: Echinochloa crus-galli, pre-emergence
How it was run: as §1

[18] = system: kochia; experiment: Test A preemergence; type: in vivo, Kochia scoparia
How it was run: as §2

[19] = system: soybean; experiment: Test C preemergence; type: in vivo, Glycine max; conditions: Glycine max, pre-emergence
How it was run: as §1

[20] = 31 g ai/ha, 0 to 100 scale where 0 is no effect and 100 is complete control, visual, approximately 10 days

N#Cc1cccc(Oc2ncc(Cl)cn2)c1-n1cc(C(F)F)cn1 [Compound 253, 3-(5-chloropyrimidin-2-yl)oxy-2-[4-(difluoromethyl)-1H-pyrazol-1-yl]benzonitrile]
pest or weed control at 16 g/ha ([1]; 16 g ai/ha, preemergence, scale 0 to 100 (0 no effect, 100 complete control), read-out: Crabgrass, Large plant response rating): 85%
pest or weed control at 125 g/ha ([1]; 125 g ai/ha, preemergence, scale 0 (no effect) to 100 (complete control), read-out: Crabgrass, Large plant response rating): 100%
pest or weed control at 62 g/ha ([1]; Preemergence, 62 g ai/ha, scale 0 to 100, 0 no effect, 100 complete control, read-out: Plant response rating, Crabgrass, Large): 100%
pest or weed control at 16 g/ha ([2]; 16 g ai/ha, preemergence, scale 0 to 100 (0 no effect, 100 complete control), read-out: Foxtail, Giant plant response rating): 35%
pest or weed control at 125 g/ha ([2]; 125 g ai/ha, preemergence, scale 0 (no effect) to 100 (complete control), read-out: Foxtail, Giant plant response rating): 100%
pest or weed control at 62 g/ha ([2]; Preemergence, 62 g ai/ha, scale 0 to 100, 0 no effect, 100 complete control, read-out: Plant response rating, Foxtail, Giant): 98%
Plant response rating, Ryegrass, Italian [3, 20]: 20
Ryegrass, Italian plant response rating (0 to 100 scale) ([3]; 125 g ai/ha): 20
pest or weed control at 16 g/ha ([4]; 16 g ai/ha, preemergence, scale 0 to 100 (0 no effect, 100 complete control), read-out: Ragweed plant response rating): 35%
pest or weed control at 125 g/ha ([4]; 125 g ai/ha, preemergence, scale 0 (no effect) to 100 (complete control), read-out: Ragweed plant response rating): 100%
pest or weed control at 62 g/ha ([4]; Preemergence, 62 g ai/ha, scale 0 to 100, 0 no effect, 100 complete control, read-out: Plant response rating, Ragweed): 85%
plant injury at 16 g/ha ([5]; 16 g ai/ha, preemergence, scale 0 to 100 (0 no effect, 100 complete control), read-out: Oilseed Rape plant response rating): 75%
plant injury at 125 g/ha ([5]; 125 g ai/ha, preemergence, scale 0 (no effect) to 100 (complete control), read-out: Oilseed Rape plant response rating): 100%
plant injury at 62 g/ha ([5]; Preemergence, 62 g ai/ha, scale 0 to 100, 0 no effect, 100 complete control, read-out: Plant response rating, Oilseed Rape): 100%
pest or weed control at 16 g/ha ([6]; 16 g ai/ha, preemergence, scale 0 to 100 (0 no effect, 100 complete control), read-out: Velvetleaf plant response rating): 55%
pest or weed control at 125 g/ha ([6]; 125 g ai/ha, preemergence, scale 0 (no effect) to 100 (complete control), read-out: Velvetleaf plant response rating): 100%
pest or weed control at 62 g/ha ([6]; Preemergence, 62 g ai/ha, scale 0 to 100, 0 no effect, 100 complete control, read-out: Plant response rating, Velvetleaf): 100%
pest or weed control at 16 g/ha ([7]; 16 g ai/ha, preemergence, scale 0 to 100 (0 no effect, 100 complete control), read-out: Johnsongrass plant response rating): 15%
pest or weed control at 125 g/ha ([7]; 125 g ai/ha, preemergence, scale 0 (no effect) to 100 (complete control), read-out: Johnsongrass plant response rating): 100%
pest or weed control at 62 g/ha ([7]; Preemergence, 62 g ai/ha, scale 0 to 100, 0 no effect, 100 complete control, read-out: Plant response rating, Johnsongrass): 60%
Plant response rating, Kochia ([8]; 31 g ai/ha): 100
Plant response rating, Kochia ([8]; 125 g ai/ha): 100
pest or weed control at 16 g/ha ([9]; 16 g ai/ha, preemergence, scale 0 to 100 (0 no effect, 100 complete control), read-out: Ryegrass, Italian plant response rating): 0%
pest or weed control at 125 g/ha ([9]; 125 g ai/ha, preemergence, scale 0 (no effect) to 100 (complete control), read-out: Ryegrass, Italian plant response rating): 80%
pest or weed control at 62 g/ha ([9]; Preemergence, 62 g ai/ha, scale 0 to 100, 0 no effect, 100 complete control, read-out: Plant response rating, Ryegrass, Italian): 35%
pest or weed control at 16 g/ha ([10]; 16 g ai/ha, preemergence, scale 0 to 100 (0 no effect, 100 complete control), read-out: Pigweed plant response rating): 100%
pest or weed control at 125 g/ha ([10]; 125 g ai/ha, preemergence, scale 0 (no effect) to 100 (complete control), read-out: Pigweed plant response rating): 100%
pest or weed control at 62 g/ha ([10]; Preemergence, 62 g ai/ha, scale 0 to 100, 0 no effect, 100 complete control, read-out: Plant response rating, Pigweed): 100%
Plant response rating, Galium ([11]; 31 g ai/ha): 60
Plant response rating, Galium ([11]; 125 g ai/ha): 100
Plant response rating, Ragweed [12, 20]: 20
Ragweed plant response rating (0 to 100 scale) ([12]; 125 g ai/ha): 80
Plant response rating, Ragweed ([13]; 31 g ai/ha): 20
Plant response rating, Ragweed ([13]; 125 g ai/ha): 80
pest or weed control at 16 g/ha ([14]; 16 g ai/ha, preemergence, scale 0 to 100 (0 no effect, 100 complete control), read-out: Blackgrass plant response rating): 0%
pest or weed control at 125 g/ha ([14]; 125 g ai/ha, preemergence, scale 0 (no effect) to 100 (complete control), read-out: Blackgrass plant response rating): 90%
pest or weed control at 62 g/ha ([14]; Preemergence, 62 g ai/ha, scale 0 to 100, 0 no effect, 100 complete control, read-out: Plant response rating, Blackgrass): 90%
pest or weed control at 16 g/ha ([15]; 16 g ai/ha, preemergence, scale 0 to 100 (0 no effect, 100 complete control), read-out: Waterhemp plant response rating): 100%
pest or weed control at 125 g/ha ([15]; 125 g ai/ha, preemergence, scale 0 (no effect) to 100 (complete control), read-out: Waterhemp plant response rating): 100%
pest or weed control at 62 g/ha ([15]; Preemergence, 62 g ai/ha, scale 0 to 100, 0 no effect, 100 complete control, read-out: Plant response rating, Waterhemp): 100%
plant injury at 16 g/ha ([16]; 16 g ai/ha, preemergence, scale 0 to 100 (0 no effect, 100 complete control), read-out: Wheat plant response rating): 0%
plant injury at 125 g/ha ([16]; 125 g ai/ha, preemergence, scale 0 (no effect) to 100 (complete control), read-out: Wheat plant response rating): 60%
plant injury at 62 g/ha ([16]; Preemergence, 62 g ai/ha, scale 0 to 100, 0 no effect, 100 complete control, read-out: Plant response rating, Wheat): 0%
pest or weed control at 16 g/ha ([17]; 16 g ai/ha, preemergence, scale 0 to 100 (0 no effect, 100 complete control), read-out: Barnyardgrass plant response rating): 30%
pest or weed control at 125 g/ha ([17]; 125 g ai/ha, preemergence, scale 0 (no effect) to 100 (complete control), read-out: Barnyardgrass plant response rating): 100%
pest or weed control at 62 g/ha ([17]; Preemergence, 62 g ai/ha, scale 0 to 100, 0 no effect, 100 complete control, read-out: Plant response rating, Barnyardgrass): 100%
Plant response rating, Kochia [18, 20]: 90
Kochia plant response rating (0 to 100 scale) ([18]; 125 g ai/ha): 100
plant injury at 16 g/ha ([19]; 16 g ai/ha, preemergence, scale 0 to 100 (0 no effect, 100 complete control), read-out: Soybean plant response rating): 40%
plant injury at 125 g/ha ([19]; 125 g ai/ha, preemergence, scale 0 (no effect) to 100 (complete control), read-out: Soybean plant response rating): 98%
plant injury at 62 g/ha ([19]; Preemergence, 62 g ai/ha, scale 0 to 100, 0 no effect, 100 complete control, read-out: Plant response rating, Soybean): 95%
